# Data reported in US10808007B2, “Desacetoxytubulysin H and analogs thereof” (WILLIAM MARSH RICE UNIVERSITY, priority 2015, dated 2020).
# Where two headings read alike, the source gives them in different places.
# Assays:
# Format in all cases: cell-based
# [1] = test system: HEK 293T (human embryonic kidney cells); experiment: Cytotoxic assay (CellTiter-Glo, 72 h), HEK 293T; settings: Homo sapiens, HEK-293T, read-out: IC50 HEK 293T
# [2] = test system: prostate cancer cell lines; experiment: NCI-60 cytotoxicity, prostate cancer; settings: Homo sapiens
# Procedure: (§1) A number of the synthesized compounds (i.e. Tb1-Tb23) were evaluated for their activity against a variety of cancer cell lines, namely the NCI-60 human cancer cell line panel representing leukemia, melanoma, lung, colon, brain, ovary, breast, prostate and kidney types of cancer through the In Vitro Cell Line Screening Project (IVCLSP) of the National Cancer Institute (NCI), and a summary of the results is shown in Table 1. […] As there was interest in the activity in certain other cell lines, these and the remaining compounds (Tb1-Tb41, PTb-D42 and PTb-D43) were subjected to further testing against MES SA (uterine sarcoma cells), MES SA DX (multidrug resistant uterine sarcoma cells), and HEK 293T (human embryonic kidney cells). […] Tubulysins are known to be substrates for Pgp pumps (Xiangming, et al., 2013; Kaur, et al., 2006; Szakacs, et al., 2006) as supported by the observed low activities of all tubulysins tested except Tb28, Tb32 and Tb33.
# [3] = test system: non-small cell lung cancer cell lines; experiment: NCI-60 cytotoxicity, non-small cell lung cancer; settings: Homo sapiens
# Procedure: as §1
# [4] = test system: CNS cancer cell lines; experiment: NCI-60 cytotoxicity, CNS cancer; settings: Homo sapiens
# Procedure: as §1
# [5] = test system: ovarian cancer cell lines; experiment: NCI-60 cytotoxicity, ovarian cancer; settings: Homo sapiens
# Procedure: as §1
# [6] = test system: leukemia cancer cell lines; experiment: NCI-60 cytotoxicity, leukemia; settings: Homo sapiens
# Procedure: as §1
# [7] = test system: breast cancer cell lines; experiment: NCI-60 cytotoxicity, breast cancer; settings: Homo sapiens
# Procedure: as §1
# [8] = test system: MES SA DX (multidrug resistant uterine sarcoma cells); experiment: Cytotoxic assay (CellTiter-Glo, 72 h), MES SA DX; settings: Homo sapiens
# [9] = test system: melanoma cell lines; experiment: NCI-60 cytotoxicity, melanoma; settings: Homo sapiens
# Procedure: as §1
# [10] = test system: colon cancer cell lines; experiment: NCI-60 cytotoxicity, colon cancer; settings: Homo sapiens
# Procedure: as §1
# [11] = test system: MES SA (uterine sarcoma cells); experiment: Cytotoxic assay (CellTiter-Glo, 72 h), MES SA; settings: Homo sapiens, MES-SA, read-out: IC50 MES SA
# [12] = test system: renal cancer cell lines; experiment: NCI-60 cytotoxicity, renal cancer; settings: Homo sapiens
# Procedure: as §1
Structure (SMILES),IC50 ([1]; 72 h) [nM],IC50 [8] [nM],IC50 ([11]; 72 h) [nM],IC50 [1] [nM],IC50 [11] [nM],further results
"CCC(C)[C@H](NC(=O)[C@H]1CCCCN1C)C(=O)N(C)[C@H](C[C@@H](OC(C)=O)c1nc(C(=O)NC23C4C5C2C2C3C4C52C(=O)OC)cs1)C(C)C (stereo in doubt) [Tb11, Methyl 4-(2-((1R,3R)-1-acetoxy-3-((2S,3S)—N,3-dimethyl-2-((R)-1-methylpiperidine-2-carboxamido)-pentanamido)-4-methylpentyl)thiazole-4-carboxamido)cubane-1-carboxylate]",0.26,> 50,0.84,–,–,"GI50 ([2]; NCI-60): 1.13 nM; GI50 ([2]; NCI-60, selected value): 1.13 nM; GI50 ([3]; NCI-60): 0.331 nM; GI50 ([4]; NCI-60): 1.15 nM; GI50 ([4]; NCI-60, selected value): 1.15 nM; GI50 ([5]; NCI-60): 0.489 nM; GI50 ([6]; NCI-60): 0.159 nM; GI50 ([7]; NCI-60): 0.428 nM; GI50 ([9]; NCI-60): 0.349 nM; GI50 ([9]; NCI-60, selected value): 0.349 nM; GI50 ([10]; NCI-60): 1.14 nM; GI50 ([10]; NCI-60, selected value): 1.14 nM; GI50 ([12]; NCI-60): 0.768 nM"
"CCC(C)[C@H](NC(=O)CN(C)C)C(=O)N(C)[C@H](C[C@@H](OC(C)=O)c1nc(C(=O)NC23C4C5C2C2C3C4C52C(=O)OC)cs1)C(C)C (stereo in doubt) [Tb13, Methyl 4-(2-((6S,9R,11R)-6-((S)-sec-butyl)-9-isopropyl-2,8-dimethyl-4,7,13-trioxo-12-oxa-2,5,8-triaza-tetradecan-11-yl)thiazole-4-carboxamido)cubane-1-carboxylate]",> 50,> 50,> 50,–,–,"GI50 ([2]; NCI-60, selected value): 167 nM; GI50 ([3]; NCI-60, selected value): 142 nM; GI50 ([4]; NCI-60, selected value): 117 nM; GI50 ([5]; NCI-60, selected value): 111 nM; GI50 ([6]; NCI-60, selected value): 13.8 nM; GI50 ([7]; NCI-60, selected value): 136 nM; GI50 ([9]; NCI-60, selected value): 40.2 nM; GI50 ([10]; NCI-60, selected value): 122 nM; GI50 ([12]; NCI-60, selected value): 167 nM"
"COC(=O)[C@@H](C)C[C@H](Cc1ccccc1)NC(=O)c1csc([C@@H](C[C@H](C(C)C)N(C)C(=O)[C@@H](NC(=O)[C@H]2CCCCN2C)c2ccc(F)cc2)OC(C)=O)n1 [Tb29, (2S,4R)-Methyl 4-(2-((1R,3R)-1-acetoxy-3-((S)-2-(4-fluorophenyl)-N-methyl-2-((R)-1-methylpiperidine-2-carboxamido)acetamido)-4-methylpentyl)thiazole-4-carboxamido)-2-methyl-5-phenylpentan oate]",2.24,500,2.61,–,–,–
"CC(=O)O[C@H](C[C@H](C(C)C)N(C)C(=O)[C@@H](NC(=O)[C@H]1CCCCN1C)C1CC1)c1nc(C(=O)N[C@@H](Cc2ccccc2)C[C@H](C)C(=O)O)cs1 [Tb30, (2S,4R)-4-(2-((1R,3R)-1-Acetoxy-3-((S)-2-cyclopropyl-N-methyl-2-((R)-1-methylpiperidine-2-carboxamido)acetamido)-4-methylpentyl)thiazole-4-carboxamido)-2-methyl-5-phenylpentanoic Acid]",0.35,> 100,4.09,–,–,–
"COC(=O)[C@@H](C)C[C@H](Cc1ccccc1)NC(=O)c1csc([C@@H](C[C@H](C(C)C)N(C)C(=O)[C@@H](NC(=O)[C@H]2CCCCN2C)C(C)C)OC(C)=O)n1 [Tb32, (2S,4R)-Methyl 4-(2-((1R,3R)-1-acetoxy-3-((S)—N,3-dimethyl-2-((R)-1-methylpiperidine-2-carboxamido)butanamido)-4-methylpentyl)thiazole-4-carboxamido)-2-methyl-5-phenylpentanoate]",0.002,1.29,0.012,0.002,0.012,–
"COC(=O)[C@@H](C)C[C@H](Cc1ccccc1)NC(=O)c1csc([C@@H](C[C@H](C(C)C)N(C)C(=O)[C@@H](NC(=O)[C@H]2CCCCN2C)C2CCCCC2)OC(C)=O)n1 [Tb33, (2S,4R)-Methyl 4-(2-((1R,3R)-1-acetoxy-3-((S)-2-cyclohexyl-N-methyl-2-((R)-1-methylpiperidine-2-carboxamido)acetamido)-4-methylpentyl)thiazole-4-carboxamido)-2-methyl-5-phenylpentanoate]",0.048,101,0.066,0.048,0.066,–
"CC[C@H](C)[C@H](NC(=O)c1ncccn1)C(=O)N(C)[C@H](C[C@@H](OC(C)=O)c1nc(C(=O)N[C@@H](Cc2ccccc2)C[C@H](C)C(=O)OC)cs1)C(C)C [Tb34, (2S,4R)-methyl 4-(2-((1R,3R)-1-acetoxy-3-((2S,3S)—N,3-dimethyl-2-(pyrimidine-2-carboxamido)pentanamido)-4-methylpentyl)thiazole-4-carboxamido)-2-methyl-5-phenylpentanoate]",> 500,> 1000,> 1000,–,–,–
"CC[C@H](C)[C@H](NC(=O)c1cnccn1)C(=O)N(C)[C@H](C[C@@H](OC(C)=O)c1nc(C(=O)N[C@@H](Cc2ccccc2)C[C@H](C)C(=O)OC)cs1)C(C)C [Tb35, (2S,4R)-methyl 4-(2-((1R,3R)-1-acetoxy-3-((2S,3S)—N,3-dimethyl-2-(pyrazine-2-carboxamido)pentanamido)-4-methylpentyl)thiazole-4-carboxamido)-2-methyl-5-phenylpentanoate]",> 500,> 1000,> 1000,–,–,–
"COC(=O)[C@@H](C)C[C@H](Cc1ccccc1)NC(=O)c1cccc([C@@H](C[C@H](C(C)C)N(C)C(=O)[C@@H](NC(=O)[C@H]2CCCCN2C)C2CC2)OC(C)=O)n1 [Tb36, Methyl (2S,4R)-4-(6-((1R,3R)-1-acetoxy-3-((S)-2-cyclopropyl-N-methyl-2-((R)-1-methylpiperidine-2-carboxamido)acetamido)-4-methylpentyl)picolinamido)-2-methyl-5-phenylpentanoate]",0.631,> 1000,0.308,0.631,0.308,–
"CC(=O)O[C@H](C[C@H](C(C)C)N(C)C(=O)[C@@H](NC(=O)[C@H]1CCCCN1C)C1CC1)c1cccc(C(=O)N[C@@H](Cc2ccccc2)C[C@H](C)C(=O)O)n1 [Tb37, (2S,4R)-4-(6-((1R,3R)-1-Acetoxy-3-((S)-2-cyclopropyl-N-methyl-2-((R)-1-methylpiperidine-2-carbox-amido)acetamido)-4-methylpentyl)picolinamido)-2-methyl-5-phenylpentanoic Acid]",3.52,> 1000,14.4,–,–,–
"CC[C@H](C)[C@H](NC(=O)[C@H]1CCCCN1C)C(=O)N(C)[C@H](C[C@@H](OC(C)=O)c1cccc(C(=O)N[C@@H](Cc2ccccc2)C[C@H](C)C(=O)OC)n1)C(C)C [Tb38, Methyl (2S,4R)-4-(6-((1R,3R)-1-acetoxy-3-((2S,3S)—N,3-dimethyl-2-((R)-1-methylpiperidine-2-carboxamido)pentanamido)-4-methylpentyl)picolinamido)-2-methyl-5-phenylpentanoate]",0.574,< 500,0.357,0.574,0.357,–
"CC[C@H](C)[C@H](NC(=O)[C@H]1CCCCN1C)C(=O)N(C)[C@H](C[C@@H](OC(C)=O)c1cccc(C(=O)N[C@@H](Cc2ccccc2)C[C@H](C)C(=O)O)n1)C(C)C [Tb39, (2S,4R)-4-(6-((1R,3R)-1-acetoxy-3-((2S,3S)—N,3-dimethyl-2-((R)-1-methylpiperidine-2 carboxamido)pentanamido)-4-methylpentyl)picolinamido)-2-methyl-5-phenylpentanoic Acid]",0.194,< 500,0.891,0.194,0.891,–
"COC(=O)[C@@H](C)C[C@H](Cc1ccc(F)cc1)NC(=O)c1csc([C@@H](C[C@H](C(C)C)N(C)C(=O)[C@@H](NC(=O)[C@H]2CCCCN2C)C(C)C)OC(C)=O)n1 [Tb40, Methyl(2S,4R)-4-(2-((1R,3R)-1-acetoxy-3-((S)—N,3-dimethyl-2-((R)-1-methylpiperidine-2-carboxamido)butanamido)-4-methylpentyl)thiazole-4-carboxamido)-5-(4-fluorophenyl)-2-methylpentanoate]",> 1000,> 1000,15.6,–,–,–
"COC(=O)[C@@H](C)C[C@H](Cc1cn(C)c2ccccc12)NC(=O)c1csc([C@@H](C[C@H](C(C)C)N(C)C(=O)[C@@H](NC(=O)[C@H]2CCCCN2C)C(C)C)OC(C)=O)n1 [Tb41, Methyl(2S,4R)-4-(2-((1R,3R)-1-acetoxy-3-((S)—N,3-dimethyl-2-((R)-1-methylpiperidine-2-carboxamido)butanamido)-4-methylpentyl)thiazole-4-carboxamido)-2-methyl-5-(1-methyl-1H-indol-3-yl)pen-tanoate]",21.1,> 1000,> 1000,–,–,–
